Reference: PMC6494831, “Drug-like Fragments Inhibit agr-Mediated Virulence Expression in Staphylococcus aureus” (Scientific Reports, 2019)
Where two headings read alike, the source gives them in different places.

Molecular target: AgrA (Staphylococcus aureus, UniProt P0A0I7)
Experiment: ITC with purified AgrAC, one-site fit, N fixed to […]
Type: binding

Sequence of AgrA (P0A0I7 137-238): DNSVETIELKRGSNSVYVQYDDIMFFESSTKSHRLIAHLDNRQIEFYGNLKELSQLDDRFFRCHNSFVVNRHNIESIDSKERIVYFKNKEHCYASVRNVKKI

Row | Structure (SMILES) | Kd | Kd (read-out: Kd)
1 | O=C(O)C1c2ccccc2Oc2ccccc21 [compound 1, 9H-xanthene-9-carboxylic acid] | 485 ± 39.3 µM | –
2 | Cc1ccc(-c2nc(C(=O)O)cs2)cc1 [compound 2, 2-(4-methylphenyl)-1,3-thiazole-4-carboxylic acid] | 417 ± 62.9 µM | –
3 | Cc1cc(O)cc(C)c1C#N [compound 3, 4-hydroxy-2,6-dimethylbenzonitrile] | – | 110 ± 45.6 µM
